Results: PubChem BioAssay AID1918930 (Molecular Pharmacology Branch, DTP, NCI, 2023)
Where “and” joins values, the source holds several entries; their conditions need not be identical. Equal entries are not always repeated.

Tested on: 233499-124-R-J3-PDC complex spheroid viability, % test/control
Assay: Anticancer human tumor 233499-124-R-J3-PDC patient-derived colon adenocarcinoma cell line growth inhibition
Details: for viability, T/C: stronger effect = lower value; active means viability on the fitted dose curve at most 10% of control; inactive means the rest
Procedure, shortened: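 Multicellular complex spheroids of tumor cells with human endothelial cells (HUVEC) and mesenchymal stem cells; the LSD1 inhibitor iadademstat was combined with standard-of-care or investigational agents. Top concentration at or near clinical Cmax, half-log dilutions; final DMSO ≤0.25%.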

[1] = curve of first compound, second compound 0.1 µM
[2] = curve of first compound, second compound 0.316 µM
[3] = curve of first compound, second compound 1 µM
[4] = curve of first compound, second compound 3.16 µM
[5] = curve of first compound, second compound 10 µM
[6] = second compound 0.1 µM, first compound 0.00316 µM
[7] = second compound 0.1 µM, first compound 0.01 µM
[8] = second compound 0.1 µM, first compound 0.0316 µM
[9] = second compound 0.1 µM, first compound 0.1 µM
[10] = second compound 0.316 µM, first compound 0.00316 µM
[11] = second compound 0.316 µM, first compound 0.01 µM
[12] = second compound 0.316 µM, first compound 0.0316 µM
[13] = second compound 0.316 µM, first compound 0.1 µM
[14] = second compound 1 µM, first compound 0.00316 µM
[15] = second compound 1 µM, first compound 0.01 µM
[16] = second compound 1 µM, first compound 0.0316 µM
[17] = second compound 1 µM, first compound 0.1 µM
[18] = second compound 3.16 µM, first compound 0.00316 µM
[19] = second compound 3.16 µM, first compound 0.01 µM
[20] = second compound 3.16 µM, first compound 0.0316 µM
[21] = second compound 3.16 µM, first compound 0.1 µM
[22] = second compound 10 µM, first compound 0.00316 µM
[23] = second compound 10 µM, first compound 0.01 µM
[24] = second compound 10 µM, first compound 0.0316 µM
[25] = second compound 10 µM, first compound 0.1 µM
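Further: spheroids exposed to agents for one week before readout.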

Nc1ccn(C2OC(CO)C(O)C2(F)F)c(=O)n1 (stereo not drawn)
inactive: viability, T/C (compound 0.000949 µM) 69.7% and 82.2% | viability, T/C (compound 0.003 µM) 36.4% and 84.6% | viability, T/C (compound 0.00949 µM) 40.4% and 80.5% | viability, T/C (compound 0.03 µM) 26.6% and 68.5% | viability, T/C (compound 0.0949 µM) 31% and 48.6% | viability, T/C (compound 0.3 µM) 54.3% and 46.2%

CC(C)CC(NC(=O)C(Cc1ccccc1)NC(=O)c1cnccn1)B(O)O (stereo not drawn) + NC1CC1c1ccc(-c2cccc(O)c2)cc1
0.389 nM: IC50 [5]
0.491 nM: IC50 [1]
inactive: viability, T/C (second compound 0.1 µM, first compound 0.000316 µM) 80.7% | viability, T/C (second compound 0.316 µM, first compound 0.000316 µM) 71% | viability, T/C (second compound 1 µM, first compound 0.000316 µM) 80.7% | viability, T/C (second compound 3.16 µM, first compound 0.000316 µM) 89.8% | viability, T/C (second compound 10 µM, first compound 0.000316 µM) 60.1%
0.493 nM: IC50 [3]
0.445 nM: IC50 [2]
0.528 nM: IC50 [4]
active: viability, T/C (second compound 0.1 µM, first compound 0.001 µM) 0.42% | viability, T/C [6] 0.06% | viability, T/C [7] 0.06% | viability, T/C [8] 0.07% | viability, T/C [9] 0.23% | viability, T/C (second compound 0.316 µM, first compound 0.001 µM) 0.32% | viability, T/C [10] 0.06% | viability, T/C [11] 0.23% | viability, T/C [12] 0.05% | viability, T/C [13] 0.21% | viability, T/C (second compound 1 µM, first compound 0.001 µM) 0.91% | viability, T/C [14] 0.05% | viability, T/C [15] 0.04% | viability, T/C [16] 0.06% | viability, T/C [17] 0.2% | viability, T/C (second compound 3.16 µM, first compound 0.001 µM) 0.32% | viability, T/C [18] 0.08% | viability, T/C [19] 0.06% | viability, T/C [20] 0.07% | viability, T/C [21] 0.23% | viability, T/C (second compound 10 µM, first compound 0.001 µM) 3.72% | viability, T/C [22] 0.8% | viability, T/C [23] 0.22% | viability, T/C [24] 0.42% | viability, T/C [25] 0.34%

NS(=O)(=O)OCC1CC(n2ccc3c(NC4CCc5ccccc54)ncnc32)CC1O (stereo not drawn)
12.7% and 6.06%: viability, T/C (compound 0.3 µM)
active: viability, T/C (compound 0.949 µM) 7.91% and 3.62% | viability, T/C (compound 3 µM) 6.79% and 2.48%
44.9 nM and 49.1 nM: IC50 (curve of compound)
inactive: viability, T/C (compound 0.00949 µM) 106% and 87.5% | viability, T/C (compound 0.03 µM) 58.4% and 62.6% | viability, T/C (compound 0.0949 µM) 35.3% and 33.8%

O=C(C=Cn1cnc(-c2cc(C(F)(F)F)cc(C(F)(F)F)c2)n1)NNc1cnccn1 + NC1CCC(NC2CC2c2ccccc2)CC1
inactive: viability, T/C [6] 106% | viability, T/C [7] 102% | viability, T/C [8] 99.5% | viability, T/C [9] 49.5% | viability, T/C (second compound 0.1 µM, first compound 0.316 µM) 31.1% | viability, T/C (second compound 0.1 µM, first compound 1 µM) 19.8% | viability, T/C [10] 119% | viability, T/C [11] 109% | viability, T/C [12] 97.4% | viability, T/C [13] 59.2% | viability, T/C (second compound 0.316 µM, first compound 0.316 µM) 28.2% | viability, T/C (second compound 0.316 µM, first compound 1 µM) 11.7% | viability, T/C [14] 115% | viability, T/C [15] 106% | viability, T/C [16] 106% | viability, T/C [17] 40% | viability, T/C (second compound 1 µM, first compound 0.316 µM) 30.9% | viability, T/C (second compound 1 µM, first compound 1 µM) 12% | viability, T/C [18] 99.3% | viability, T/C [19] 90.8% | viability, T/C [20] 91.8% | viability, T/C [21] 54.9% | viability, T/C (second compound 3.16 µM, first compound 0.316 µM) 27.8% | viability, T/C (second compound 3.16 µM, first compound 1 µM) 14.2% | viability, T/C [22] 96.8% | viability, T/C [23] 97.3% | viability, T/C [24] 87.3% | viability, T/C [25] 43.2% | viability, T/C (second compound 10 µM, first compound 0.316 µM) 22% | viability, T/C (second compound 10 µM, first compound 1 µM) 15.8%
102 nM: IC50 [1]
130 nM: IC50 [4]
84.6 nM: IC50 [3] | IC50 [5]
144 nM: IC50 [2]
